The molecules below were run on ABCA1 mRNA (assay: ABCA1 mRNA induction in THP-1 cells, QuantiGene branched DNA assay). Conditions: 10 μM test compound, 18-20 hours.
Format: cell-based
Summary of the method: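 THP-1 cells, grown to subconfluence, treated with compounds at 10 and 3 μM in DMEM/BSA for 18–20 h. Lysates hybridized with ABCA1-specific probe 16–18 h at 53 °C; QuantiGene branched DNA luminescence gives fold increase over DMSO.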
With COc1cccc2c1OCC1C2Nc2ccc(C(O)(C(F)(F)F)C(F)(F)F)cc2C1(C)C (stereo not drawn) [Number 33, 1,1,1,3,3,3-hexafluoro-2-(4-methoxy-7,7-dimethyl(7,12,12a,6a-tetrahydrochromano[4,3-b]quinolin-9-yl))propan-2-ol] the “ABCA1 Induction Fold Increase over DMSO Vehicle” value (“ABCA1 Induction Fold Increase” below) was 6.4 FOLD INCREASE.
For COc1cccc2c1OC[C@@H]1[C@@H]2Nc2ccc(Br)cc2C1(C)C [Number 87, (12aS,6aS)-9-bromo-4-methoxy-7,7-dimethyl-7,12,12a,6a-tetrahydrochromano[4,3-b]quinoline], the “ABCA1 Induction Fold Increase” value was 7.4 FOLD INCREASE.
For COc1cccc2c1[C@H]1Nc3ccc(Br)cc3C(C)(C)[C@H]1CO2 [Number 85, (12aS,6aR)-9-bromo-1-methoxy-7,7-dimethyl-7,12,12a,6a-tetrahydrochromano[4,3-b]quinoline], the “ABCA1 Induction Fold Increase” value was 8.0 FOLD INCREASE.
With COc1ccc(Br)c2c1OCC1C2Nc2ccc(C(N)=S)cc2C1(C)C (stereo not drawn) [Number 82, amino(1-bromo-4-methoxy-7,7-dimethyl(7,12,12a,6a-tetrahydrochromano[4,3-b]quinolin-9-yl))methane-1-thione] the “ABCA1 Induction Fold Increase” value was 2.0 FOLD INCREASE.

Same assay, conditions: Homo sapiens, 10 μM test compound, 18-20 hours, read-out: ABCA1 Induction Fold Increase over DMSO Vehicle
CCS(=O)(=O)N1CCN(C(=O)c2ccc3c(c2)C(C)(C)[C@H]2COc4cccc(OC)c4[C@H]2N3)CC1 [Number 132, ((6aR,12aS)-1-methoxy-6a,7,12,12a-tetrahydro-7,7-dimethyl-6H-chromeno[4,3-b]quinolin-9-yl)(4-ethanesulfonylpiperazin-1-yl)methanone] was tested, and the fold induction at 10 µM was 4.3.
In the case of CC1(C)C2=C(Nc3ccc(B(O)O)cc31)c1ccc(C(=O)O)cc1OC2 [Number 17, 9-(dihydroxyboramethyl)-7,7-dimethyl-7,12-dihydro-6H-chromeno[4,3-b]quinoline-3-carboxylic acid], the fold induction at 10 µM is reported as 1.8.
For CCCCN1c2ccccc2C(C)(C)[C@@H]2COc3cccc(OC)c3[C@H]21 [Number 175, (6aS,12aS)-12-butyl-6a,7,12,12a-tetrahydro-1-methoxy-7,7-dimethyl-6H-chromeno[4,3-b]quinoline], the fold induction at 10 µM was 1.5.
With CN(C)C(=O)/C=C/c1ccc2c(c1)C1Nc3ccc(C(O)(C(F)(F)F)C(F)(F)F)cc3C(C)(C)C1CO2 (stereo not drawn) [Number 36, (2E)-3-{7,7-dimethyl-9-[2,2,2-trifluoro-1-hydroxy-1-(trifluoromethyl)ethyl](7,12,12a,6a-tetrahydrochromano[4,3-b]quinolin-2-yl)}-N,N-dimethylprop-2-enamide] the fold induction at 10 µM was 5.3.
In the case of COc1cc(Br)cc2c1OC[C@@H]1[C@@H]2Nc2ccc(-c3nnn[nH]3)cc2C1(C)C [Number 169, (6aS,12aS)-2-bromo-6a,7,12,12a-tetrahydro-4-methoxy-7,7-dimethyl-9-(1H-tetrazol-5-yl)-6H-chromeno[4,3-b]quinoline], the fold induction at 10 µM is reported as 9.7.
